Results on two compounds are retold here after patent US20250205240A1, “COMBINATIONS” (Recurium IP Holdings, LLC, priority 2022, published 2025).

Assay [1] concerns HT-29 CDX model (BRAFmt CRC). It is filed as in vivo, BALB/c nude mice. Particulars: ZN-c3 60 mg/kg QD p.o., encorafenib 15 mg/kg QD p.o., cetuximab 15 mg/kg BIW i.p.; for TGI: 21- or 22-day study. How it is done:
(§1) CDX Models: 6-8 week old BALB/c nude mice were inoculated subcutaneously on the right flank with the single cell suspension of 95% viable tumor cells (5×10^6) in 100 μL RPMI 1640 without serum (COLO205), 95% viable tumor cells (2×10^6) in 100 μL McCoy's 5a Medium Modified without serum (HT-29), or 95% viable tumor cells (2×106) in 100 μL RPMI 1640 and Matrigel mixture (1:1 ratio) without serum (LS411N).
(§2) Grouping and treatments started when the mean tumor volume reached about 220 mm^3 (with individual tumors in the range of 200-240 mm^3). Vehicle animals were treated daily with 10 mL/kg HP-β-CD p.o. (oral gavage). Encorafenib was prepared weekly in 0.5% carboxymethyl cellulose: 0.5% Tween 80:99% deionized water and dosed daily (QD) at the indicated doses orally (p.o.) (see Tables 4 and 5 for dosage amounts). ZN-c3 was prepared daily in 20% HP-B-CD and dosed daily at the indicated doses p.o. (see Tables 4 and 5 for dosage amounts). […] Body weight and tumor volume of all animals was measured twice weekly throughout the studies that were 21 or 22 days or 3 weeks in duration (for CDX models HT-29 and LS411N) or that were 28 days or 4 weeks in duration (for PDX models CRC769, CRC563 and CTG-1009). The measurement of tumor size was performed with a caliper and the tumor volume (mm3) was estimated using the formula: TV=a×b2/2 throughout the study, where “a” and “b” is long and short diameters of a tumor, respectively. Animals were euthanized when their individual tumor burden exceeded 2000 mm^3 or is in a continuing deteriorating condition or close to a comatose state.

Assay [2] has as its system LS411N CDX model (BRAFmt CRC). In kind it is in vivo, BALB/c nude mice. The note with it: ZN-c3 60 mg/kg QD p.o., encorafenib 20 mg/kg QD p.o., cetuximab 15 mg/kg BIW i.p.; for TGI: 21- or 22-day study. Here is the method:
as §1, §2

Another assay has as its system HT-29 cell line. The experiment in a line: In vitro tumor cell proliferation assay (3D spheroid, 3D CTG), HT-29. In kind it is cell-based. The note with it: Homo sapiens. How it is done: (§3) Cell suspensions containing 1.5×10^3 total cells in 100 μL culture media were deposited in each well of an ultra-low attachment 96 well plate. Plates were incubated at 37° C. with […] and 5% CO2 for 72 h to allow for spheroid formation. […] ZN-c3 and/or Encorafenib compounds in DMSO were deposited into the plates using an automated drug dispenser at the indicated concentrations. Total DMSO content was normalized to 0.1% of the total volume in all assay conditions. Plates were sealed with breathable film to reduce evaporation and incubated at 37° C. with […] and 5% CO2 for 192 h. After 192 h, plates were removed from the incubator and allowed to come to room temperature. 100 μL room temperature 3D CTG reagent (Promega, Cat #G9683) was added to each well. Plates were agitated at 520 revolutions per minute (rpm) for 5 mins, allowed to stabilize protected from light for 30 mins, then luminescence was measured on an M5e plate reader (SpectraMax). Percent viability was calculated as percentage of cell viability relative to DMSO-only vehicle control.

Assay [3] relates to CTG-1009 PDX model (BRAFmt CRC). In kind it is in vivo, female athymic nude Foxn1nu mice. Particulars: ZN-c3 60 mg/kg QD p.o., encorafenib 20 mg/kg QD p.o., cetuximab 15 mg/kg BIW i.p., 28-day study. Here is the method:
(§4) PDX Models: Tumor fragments (CRC769, CRC563, CTG-1009) were brought out of cryopreservation and implanted into female athymic nude Foxn1nu mice. Fragments were allowed to grow then excised once an appropriate volume was reached. A tumor slurry was made of 50% freshly harvested tumors minced to small tumor fragments in PBS and 50% Matrigel. The tumor slurry was injected subcutaneously into 6-8 week old female athymic nude Foxn1nu mice on the flank.
as §2

For assay [4], the system named is CRC769 PDX model (BRAFmt CRC). In kind it is in vivo, female athymic nude Foxn1nu mice. The note with it: ZN-c3 60 mg/kg QD p.o., encorafenib 20 mg/kg QD p.o., cetuximab 20 mg/kg BIW i.p., 28-day study. How it is done: as §4, §2
The subject of a further assay is LS411N cell line. The assay is described as follows: In vitro tumor cell proliferation assay (3D spheroid, 3D CTG), LS411N. In kind it is cell-based. The note with it: Homo sapiens, LS-411N, 192 h. Here is the method:
as §3

In another assay the target is WEE1 (Homo sapiens, UniProt P30291). Particulars: as provided in WO 2019/173082; cited from earlier work.
Assay [5] deals with CRC563 PDX model (BRAFmt CRC). In kind it is in vivo, female athymic nude Foxn1nu mice. Particulars: ZN-c3 60 mg/kg QD p.o., encorafenib 20 mg/kg QD p.o., cetuximab 20 mg/kg BIW i.p., 28-day study. How it is done:
as §4, §2

[6] abbreviates: HT-29 spheroids, 192 h, 250 nM ZN-c3, 1.6 nM encorafenib, relative to 0.1% DMSO.
Setting [7] is: LS411N spheroids, 250 nM ZN-c3, 25 nM encorafenib, relative to 0.1% DMSO.

WEE1, sequence (P30291 whole entry, species assumed): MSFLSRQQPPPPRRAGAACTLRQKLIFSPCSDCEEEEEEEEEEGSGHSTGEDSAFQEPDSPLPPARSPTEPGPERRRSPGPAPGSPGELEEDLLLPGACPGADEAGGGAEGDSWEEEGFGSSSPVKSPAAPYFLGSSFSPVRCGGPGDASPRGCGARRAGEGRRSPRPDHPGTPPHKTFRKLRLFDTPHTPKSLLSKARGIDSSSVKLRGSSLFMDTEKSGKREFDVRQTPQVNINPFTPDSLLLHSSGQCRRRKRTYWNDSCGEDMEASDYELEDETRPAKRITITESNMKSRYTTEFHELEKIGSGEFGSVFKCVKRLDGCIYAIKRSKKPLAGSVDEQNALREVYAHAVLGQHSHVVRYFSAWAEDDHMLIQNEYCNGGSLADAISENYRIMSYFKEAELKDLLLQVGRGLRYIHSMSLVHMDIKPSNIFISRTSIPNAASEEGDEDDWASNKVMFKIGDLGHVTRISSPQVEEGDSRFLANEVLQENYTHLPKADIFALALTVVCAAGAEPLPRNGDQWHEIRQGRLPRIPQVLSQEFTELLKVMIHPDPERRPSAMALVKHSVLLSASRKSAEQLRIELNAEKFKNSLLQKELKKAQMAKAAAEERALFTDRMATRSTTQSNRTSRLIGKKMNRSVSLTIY

As for `COC(=O)N[C@@H](C)CNc1nccc(-c2cn(C(C)C)nc2-c2cc(Cl)cc(NS(C)(=O)=O)c2F)n1` [Encorafenib, encorafenib, reference compound], the “Tumor Vol. Change from D 14-D 21 (%)” value in assay [1] stood at 36.9%; in assay [2], 36.6%. Also, the TGI in assay [1] was determined as 42.6; in assay [2], 64.6; in assay [3], 80.0; in assay [4] it was 69.0. Also, in the assay on HT-29 cell line (HT-29, 192 h), the inhibition at 0.01 µM was 75.8%. Further, the inhibition at 0.0016 µM in the assay on HT-29 cell line (setting [6]) was found to be 39.5%. For the same compound, at 0.025 µM the inhibition with LS411N cell line (setting [7]) was 28.3%.

With `C=CCn1c(=O)c2cnc(Nc3ccc(N4CCN(C)CC4)cc3)nc2n1-c1ccc2c(n1)[C@@](O)(CC)CC2` [ZN-c3, (R)-2-allyl-1-(7-ethyl-7-hydroxy-6,7-dihydro-5H-cyclopenta[b]pyridin-2-yl)-6-((4-(4-methylpiperazin-1-yl)phenyl)amino)-1,2-dihydro-3H-pyrazolo[3,4-d]pyrimidin-3-one], the “Tumor Vol. Change from D 14-D 21 (%)” value in assay [1] came out at 36.3%; in assay [2], 35.8%. In addition, the TGI is reported as 15.0 in assay [1]; 69.0 in assay [2]; 51.2 in assay [3]; 19.0 in assay [4]; 43.4 in assay [5]. Also, the “activity against WEE1” value on WEE1 is given as “active against WEE1”. Also, in the assay with HT-29 cell line (HT-29, 192 h), the inhibition at 0.3 µM was 34.5%. Moreover, the inhibition at 0.25 µM with HT-29 cell line (setting [6]) is 39%; in the assay with LS411N cell line (setting [7]), 27.5%. This compound also gave an inhibition at 0.35 µM in the assay on LS411N cell line of 21.6%.
